pIC50: −log10 of the molar value. Bounds are passed on as bounds.

Data on 21 compounds can be found in patent US20250236616A1, “IMMUNOMODULATING AZALIDES” (Zoetis Services LLC, priority 2021, published 2025).

What all share (assay type): cell-based
One experiment relates to IL-6. As to the kind of experiment: Whole bovine blood assay, LPS-induced IL-6. As to conditions: fresh whole bovine blood, LPS stimulant; top drug concentration 250 μM.
Another experiment has as its system TNF-α. As to the kind of experiment: Whole bovine blood assay, LPS-induced TNF-α. The following applies: fresh whole bovine blood, LPS stimulant; top drug concentration 250 μM. The essentials:
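Fresh heparinized bovine whole blood was preincubated with compound 4 h at 37 °C, then stimulated with LPS (final 1 μg/mL) for 18 h at 37 °C. Plasma TNF-α was quantified by MSD U-Plex chemiluminescent immunoassay, normalized to total protein (BCA), and IC50 taken for LPS-induced TNF-α inhibition.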

The next experiment relates to IL-1β. As to the kind of experiment: Whole bovine blood assay, LPS-induced IL-1β (inhibition / overstimulation). The following applies: drug concentration giving overstimulation (OS) of LPS-induced IL-1β, top concentration 250 μM. The essentials: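 Fresh heparinized bovine whole blood was preincubated with compound at varying concentrations for 4 h at 37 °C, then stimulated with 1 μg/mL LPS for 18 h. Plasma IL-1β was measured by MSD chemiluminescent immunoassay and normalized to total protein. Values cover inhibition and concentration-dependent overstimulation.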

Usually pIC50 stands for −log10 of the IC50, conventionally taken in molar units. Lower therefore signals a large IC50. As usually defined, the minimal effective concentration is the lowest level tested that produced the effect sought. High values mean weaker potency, low ones greater potency. `CCCNC[C@]1(O)[C@H](C)O[C@@H](O[C@H]2[C@H](C)[C@@H](O[C@@H]3O[C@H](C)C[C@H](N(C)S(=O)(=O)N(C)C)[C@H]3O)[C@](C)(O)C[C@@H](C)CN[C@H](C)[C@@H](O)[C@](C)(O)[C@@H](CC)OC(=O)[C@@H]2C)C[C@@]1(C)OC` [Example B-51]: the pIC50 is 4.21 in the experiment with IL-6 and 4.42 with TNF-α. In the experiment with IL-1β, this compound returned a minimal effective concentration of 97 µM.
As for `CCCNC[C@]1(O)[C@H](C)O[C@@H](O[C@H]2[C@H](C)[C@@H](O[C@@H]3O[C@H](C)C[C@H](N(C)S(=O)(=O)Nc4ccc(F)cc4)[C@H]3O)[C@](C)(O)C[C@@H](C)CN[C@H](C)[C@@H](O)[C@](C)(O)[C@@H](CC)OC(=O)[C@@H]2C)C[C@@]1(C)OC` [Example B-53], the values for the pIC50 in the experiment with IL-6 and with TNF-α were 4.59 and 4.07, respectively. In addition, in the experiment on IL-1β, the minimal effective concentration was 16 µM.
Regarding `CCCNC[C@]1(O)[C@H](C)O[C@@H](O[C@H]2[C@H](C)[C@@H](O[C@@H]3O[C@H](C)C[C@H](N(C)S(=O)(=O)NC)[C@H]3O)[C@](C)(O)C[C@@H](C)CN[C@H](C)[C@@H](O)[C@](C)(O)[C@@H](CC)OC(=O)[C@@H]2C)C[C@@]1(C)OC` [Example B-55], the pIC50 in the experiment with IL-6 is less than 4.49; in the experiment with TNF-α, less than 3.60. Besides, in the experiment on IL-1β, the minimal effective concentration is listed as 26 µM.
In the case of `CCCNC[C@]1(O)[C@H](C)O[C@@H](O[C@H]2[C@H](C)[C@@H](O[C@@H]3O[C@H](C)C[C@H](N(C)S(=O)(=O)NC4CCCCC4)[C@H]3O)[C@](C)(O)C[C@@H](C)CN[C@H](C)[C@@H](O)[C@](C)(O)[C@@H](CC)OC(=O)[C@@H]2C)C[C@@]1(C)OC` [Example B-56], the negative-log IC50 (pIC50) in the experiment on IL-6 is 4.59; in the experiment with TNF-α, 4.07. In the experiment on IL-1β, the minimal effective concentration was found to be 16 µM.
For `CCCNC[C@]1(O)[C@H](C)O[C@@H](O[C@H]2[C@H](C)[C@@H](O[C@@H]3O[C@H](C)C[C@H](N(C)S(=O)(=O)N(C)c4ccccc4)[C@H]3O)[C@](C)(O)C[C@@H](C)CN[C@H](C)[C@@H](O)[C@](C)(O)[C@@H](CC)OC(=O)[C@@H]2C)C[C@@]1(C)OC` [Example B-57] the same measures were 5.10, 5.30 and 16 µM.
Take `CC[C@H]1OC(=O)[C@H](C)[C@@H](O[C@H]2C[C@@](C)(OC)[C@](O)(CNCCN3CCCC3)[C@H](C)O2)[C@H](C)[C@@H](O[C@@H]2O[C@H](C)C[C@H](N(C)S(=O)(=O)Nc3ccc(C(F)(F)F)cc3)[C@H]2O)[C@](C)(O)C[C@@H](C)CN[C@H](C)[C@@H](O)[C@]1(C)O` [Example B-68]: the results for the negative-log IC50 (pIC50) with IL-6 and in the experiment with TNF-α were 4.60 and 5.30, respectively. In the experiment with IL-1β, this compound came in with a minimal effective concentration of 16 µM.
As to `CC[C@H]1OC(=O)[C@H](C)[C@@H](O[C@H]2C[C@@](C)(OC)[C@](O)(CNC)[C@H](C)O2)[C@H](C)[C@@H](O[C@@H]2O[C@H](C)C[C@H](N(C)S(=O)(=O)Nc3ccc(C(F)(F)F)cc3)[C@H]2O)[C@](C)(O)C[C@@H](C)CN[C@H](C)[C@@H](O)[C@]1(C)O` [Example B-76], the pIC50 with IL-6 and in the experiment with TNF-α was less than 3.60 each time. Moreover, the minimal effective concentration in the experiment with IL-1β is recorded as greater than 250 µM.
As for `CC[C@H]1OC(=O)[C@H](C)[C@@H](O[C@H]2C[C@@](C)(OC)[C@](O)(CNCCN(C)C)[C@H](C)O2)[C@H](C)[C@@H](O[C@@H]2O[C@H](C)C[C@H](N(C)S(=O)(=O)Nc3ccc(C(F)(F)F)cc3)[C@H]2O)[C@](C)(O)C[C@@H](C)CN[C@H](C)[C@@H](O)[C@]1(C)O` [Example B-82], the pIC50 with IL-6 is less than 3.60; with TNF-α, 4.15. The same compound came in with a minimal effective concentration with IL-1β greater than 250 µM.
For `CC[C@H]1OC(=O)[C@H](C)[C@@H](O[C@H]2C[C@@](C)(OC)[C@](O)(CNCCCNC(C)=O)[C@H](C)O2)[C@H](C)[C@@H](O[C@@H]2O[C@H](C)C[C@H](N(C)S(=O)(=O)Nc3ccc(C(F)(F)F)cc3)[C@H]2O)[C@](C)(O)C[C@@H](C)CN[C@H](C)[C@@H](O)[C@]1(C)O` [Example B-88] the same measures were 4.40, 4.66 and 14 µM.
`CC[C@H]1OC(=O)[C@H](C)[C@@H](O[C@H]2C[C@@](C)(OC)[C@](O)(CNCCCF)[C@H](C)O2)[C@H](C)[C@@H](O[C@@H]2O[C@H](C)C[C@H](N(C)S(=O)(=O)Nc3ccc(C(F)(F)F)cc3)[C@H]2O)[C@](C)(O)C[C@@H](C)CN[C@H](C)[C@@H](O)[C@]1(C)O` [Example B-91]: the figures for the negative logarithm of the IC50 (pIC50) with IL-6 and in the experiment on TNF-α were 4.00 and 4.47, respectively. This compound gave a minimal effective concentration in the experiment with IL-1β of 2 µM.
For `CCCNC[C@]1(O)[C@H](C)O[C@@H](O[C@H]2[C@H](C)[C@@H](O[C@@H]3O[C@H](C)C[C@H](N(C)S(=O)(=O)c4ccc(Br)cc4)[C@H]3Oc3ccc(OC)cc3)[C@](C)(O)C[C@@H](C)CN[C@H](C)[C@@H](O)[C@](C)(O)[C@@H](CC)OC(=O)[C@@H]2C)C[C@@]1(C)OC` [Example B-104] the same measures were 5.15, 4.82 and 3 µM.
For `CCCNC[C@]1(O)[C@H](C)O[C@@H](O[C@H]2[C@H](C)[C@@H](O[C@@H]3O[C@H](C)C[C@H](N(C)S(=O)(=O)c4ccc(Cl)cc4)[C@H]3Oc3ccc(F)cc3)[C@](C)(O)C[C@@H](C)CN[C@H](C)[C@@H](O)[C@](C)(O)[C@@H](CC)OC(=O)[C@@H]2C)C[C@@]1(C)OC` [Example B-106] the same measures were 5.05, 5.15 and 3 µM.
For `CCCNC[C@]1(O)[C@H](C)O[C@@H](O[C@H]2[C@H](C)[C@@H](O[C@@H]3O[C@H](C)C[C@H](N(C)S(=O)(=O)c4ccc(F)cc4)[C@H]3Oc3ccc(F)cc3)[C@](C)(O)C[C@@H](C)CN[C@H](C)[C@@H](O)[C@](C)(O)[C@@H](CC)OC(=O)[C@@H]2C)C[C@@]1(C)OC` [Example B-108] the same measures were 5.00, 5.30 and 6 µM.
For the compound `CCCNC[C@]1(O)[C@H](C)O[C@@H](O[C@H]2[C@H](C)[C@@H](O[C@@H]3O[C@H](C)C[C@H](N(C)S(=O)(=O)c4ccccc4)[C@H]3Oc3ccc(F)cc3)[C@](C)(O)C[C@@H](C)CN[C@H](C)[C@@H](O)[C@](C)(O)[C@@H](CC)OC(=O)[C@@H]2C)C[C@@]1(C)OC` [Example B-109], the negative-log IC50 (pIC50) in the experiment with IL-6 was 5.00; in the experiment with TNF-α it was 5.05. This compound registered a minimal effective concentration in the experiment on IL-1β of 3 µM.
For `CCCNC[C@]1(O)[C@H](C)O[C@@H](O[C@H]2[C@H](C)[C@@H](O[C@@H]3O[C@H](C)C[C@H](N(C)S(=O)(=O)c4nccn4C)[C@H]3Oc3c(C)cccc3F)[C@](C)(O)C[C@@H](C)CN[C@H](C)[C@@H](O)[C@](C)(O)[C@@H](CC)OC(=O)[C@@H]2C)C[C@@]1(C)OC` [Example B-110] the same measures were 4.12, 3.81 and 18 µM.
Take `CCCNC[C@]1(O)[C@H](C)O[C@@H](O[C@H]2[C@H](C)[C@@H](O[C@@H]3O[C@H](C)C[C@H](N(C)S(=O)(=O)c4ncn(C)c4Cl)[C@H]3Oc3ccc(OC)cc3)[C@](C)(O)C[C@@H](C)CN[C@H](C)[C@@H](O)[C@](C)(O)[C@@H](CC)OC(=O)[C@@H]2C)C[C@@]1(C)OC` [Example B-111]: the pIC50 in the experiment with IL-6 is 3.85; with TNF-α it was less than 3.60. In the experiment on IL-1β, the minimal effective concentration worked out at 17 µM.
Turning to `CCCNC[C@]1(O)[C@H](C)O[C@@H](O[C@H]2[C@H](C)[C@@H](O[C@@H]3O[C@H](C)C[C@H](N(C)S(=O)(=O)N(C)CC(F)(F)F)[C@H]3O)[C@](C)(O)C[C@@H](C)CN[C@H](C)[C@@H](O)[C@](C)(O)[C@@H](CC)OC(=O)[C@@H]2C)C[C@@]1(C)OC` [Example B-112], the negative logarithm of the IC50 (pIC50) is 4.35 in the experiment with IL-6 and 4.41 in the experiment on TNF-α. In the experiment with IL-1β, this compound showed a minimal effective concentration of 40 µM.
For `CC[C@H]1OC(=O)[C@H](C)[C@@H](O[C@H]2C[C@@](C)(OC)[C@](O)(CNc3ccc(OC)cc3)[C@H](C)O2)[C@H](C)[C@@H](O[C@@H]2O[C@H](C)C[C@H](N(C)S(N)(=O)=O)[C@H]2O)[C@](C)(O)C[C@@H](C)CN[C@H](C)[C@@H](O)[C@]1(C)O` [Example B-125] the same measures were 4.06, 4.47 and 16 µM.
For `CCCNC[C@]1(O)[C@H](C)O[C@@H](O[C@H]2[C@H](C)[C@@H](O[C@@H]3O[C@H](C)C[C@H](N(C)S(=O)(=O)c4nccn4C)[C@H]3Oc3ccccn3)[C@](C)(O)C[C@@H](C)CN[C@H](C)[C@@H](O)[C@](C)(O)[C@@H](CC)OC(=O)[C@@H]2C)C[C@@]1(C)OC` [Example B-131] the same measures were 4.77, 4.55 and 6 µM.
For `CCCNC[C@]1(O)[C@H](C)O[C@@H](O[C@H]2[C@H](C)[C@@H](O[C@@H]3O[C@H](C)C[C@H](N(C)S(=O)(=O)c4nccn4C)[C@H]3Oc3cccc(CO)c3)[C@](C)(O)C[C@@H](C)CN[C@H](C)[C@@H](O)[C@](C)(O)[C@@H](CC)OC(=O)[C@@H]2C)C[C@@]1(C)OC` [Example B-134] the same measures were 4.08, 4.77 and 40 µM.
For the compound `CCCNC[C@]1(O)[C@H](C)O[C@@H](O[C@H]2[C@H](C)[C@@H](O[C@@H]3O[C@H](C)C[C@H](N(C)S(=O)(=O)c4nccn4C)[C@H]3Oc3ccc(Cl)cc3)[C@](C)(O)C[C@@H](C)CN[C@H](C)[C@@H](O)[C@](C)(O)[C@@H](CC)OC(=O)[C@@H]2C)C[C@@]1(C)OC` [Example B-136], the values for the pIC50 in the experiment on IL-6 and with TNF-α were 5.05 and 5.10, respectively. In the experiment with IL-1β, the minimal effective concentration was 6 µM.
